Assay results: patent US20250197396A1, “COMPOUNDS FOR INHIBITING INOSITOL HEXAKISPHOSPHATE KINASE (IP6K) AND METHODS OF USE THEREOF” (Lieber Institute, Inc., priority 2020, published 2025)

Biological target: IP6K1 (Homo sapiens (Human), UniProt Q92551)
Assay: IP6K1 IC50 of compounds of Formula (IA) and Formula (IB)
Assay type: biochemical
Settings: not given

Chain of IP6K1 (Q92551 whole entry, species assumed): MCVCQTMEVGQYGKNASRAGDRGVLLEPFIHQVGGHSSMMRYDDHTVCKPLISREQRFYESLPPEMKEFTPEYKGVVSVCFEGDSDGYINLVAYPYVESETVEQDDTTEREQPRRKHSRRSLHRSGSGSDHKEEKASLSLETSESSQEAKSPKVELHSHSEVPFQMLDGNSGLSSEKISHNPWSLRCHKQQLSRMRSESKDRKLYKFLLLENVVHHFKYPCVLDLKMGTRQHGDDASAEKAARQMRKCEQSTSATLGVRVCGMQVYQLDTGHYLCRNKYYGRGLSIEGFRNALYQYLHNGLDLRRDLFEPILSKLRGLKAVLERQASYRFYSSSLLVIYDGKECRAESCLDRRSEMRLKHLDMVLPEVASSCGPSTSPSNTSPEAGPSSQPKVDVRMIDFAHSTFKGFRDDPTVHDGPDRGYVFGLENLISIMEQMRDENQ

Structure (SMILES) | IC50 [µM] | IP6K1 IC50
O=C(O)c1ccc2[nH]c(=O)n(CC3CCN(Cc4ccc(Cl)cc4Cl)C3)c2c1 (stereo not drawn) [Cmpd 18b, 3-((1-(2,4-dichlorobenzyl)pyrrolidin-3-yl)methyl)-2-oxo-2,3-dihydro-1H-benzo[d]imidazole-5-carboxylic acid] | 3 to 30 | –
O=C(O)c1ccc2[nH]c(=O)n(CCOc3ccc(Cl)cc3)c2c1 [Cmpd 8b, 3-(2-(4-chlorophenoxy)ethyl)-2-oxo-2,3-dihydro-1H-benzo[d]imidazole-5-carboxylic acid] | – | + +
O=C(O)c1ccc2[nH]c(=O)n(C3CN(C(=O)c4ccc(Cl)cc4Cl)C3)c2c1 [Cmpd 10b, 3-(1-(2,4-dichlorobenzoyl)azetidin-3-yl)-2-oxo-2,3-dihydro-1H-benzo[d]imidazole-5-carboxylic acid] | – | + +
CC(=O)N1CCC2(CC1)C(=O)Nc1ccc(C(=O)O)cc12 [Cmpd 12a, 1′-acetyl-2-oxospiro[indoline-3,4′-piperidine]-5-carboxylic acid] | 3 to 30 | –
O=C(O)c1ccc2[nH]c(=O)n(CC3CCN(C(=O)c4ccc(Cl)cc4Cl)C3)c2c1 (stereo not drawn) [Cmpd 19b, 3-((1-(2,4-dichlorobenzoyl)pyrrolidin-3-yl)methyl)-2-oxo-2,3-dihydro-1H-benzo[d]imidazole-5-carboxylic acid] | – | + +
O=C(O)c1ccc2c(c1)C1(CCN(C(=O)C3CC3)CC1)C(=O)N2 [Cmpd 10a, 1′-(cyclopropanecarbonyl)-2-oxospiro[indoline-3,4′-piperidine]-5-carboxylic acid] | 3 to 30 | –
O=C(O)c1ccc2[nH]c(=O)n(CCCOc3ncc(Cl)cc3Cl)c2c1 [Cmpd 9b, 3-(3-((3,5-dichloropyridin-2-yl)oxy)propyl)-2-oxo-2,3-dihydro-1H-benzo[d]imidazole-5-carboxylic acid] | – | + + +
O=C(O)c1ccc2c(c1)C1(CCN(Cc3ccc(Cl)cc3)CC1)C(=O)N2 [Cmpd 5a, 1′-(4-chlorobenzyl)-2-oxospiro[indoline-3,4′-piperidine]-5-carboxylic acid] | – | + +
O=C(O)c1ccc2[nH]c(=O)n([C@H]3CC[C@H](Oc4ncc(Cl)cc4Cl)CC3)c2c1 [Cmpd 5b, 3-((1r,4r)-4-((3,5-dichloropyridin-2-yl)oxy)cyclohexyl)-2-oxo-2,3-dihydro-1H-benzo[d]imidazole-5-carboxylic acid] | – | + + +
O=C(O)c1ccc2c(c1)C1(CCN(C(=O)COc3ccc(Cl)cc3)CC1)C(=O)N2 [Cmpd 9a, 1′-(2-(4-chlorophenoxy)acetyl)-2-oxospiro[indoline-3,4′-piperidine]-5-carboxylic acid] | – | + +
O=C(O)c1ccc2c(c1)C1(CCN(Cc3ccccc3Cl)CC1)C(=O)N2 [Cmpd 15a, 1′-(2-chlorobenzyl)-2-oxospiro[indoline-3,4′-piperidine]-5-carboxylic acid] | – | + +
O=C(O)c1cc2c(cc1F)[nH]c(=O)n2[C@H]1CC[C@H](Oc2ncc(Cl)cc2Cl)CC1 [Cmpd 7b, 3-((1r,4r)-4-((3,5-dichloropyridin-2-yl)oxy)cyclohexyl)-6-fluoro-2-oxo-2,3-dihydro-1H-benzo[d]imidazole-5-carboxylic acid] | – | + + +
O=C(O)c1ccc2c(c1)C1(CCN(C(=O)Cc3ccc(Cl)cc3)CC1)C(=O)N2 [Cmpd 4a, 1′-(2-(4-chlorophenyl)acetyl)-2-oxospiro[indoline-3,4′-piperidine]-5-carboxylic acid] | – | + +
O=C(O)c1ccc2[nH]c(=O)n([C@H]3CCN(Cc4ccc(Cl)cc4Cl)C3)c2c1 [Cmpd 13b, (S)-3-(1-(2,4-dichlorobenzyl)pyrrolidin-3-yl)-2-oxo-2,3-dihydro-1H-benzo[d]imidazole-5-carboxylic acid] | – | + +
O=C(O)c1ccc2[nH]c(=O)n([C@H]3CC[C@@H](Oc4ncc(Cl)cc4Cl)CC3)c2c1 [Cmpd 6b, 3-((1s,4s)-4-((3,5-dichloropyridin-2-yl)oxy)cyclohexyl)-2-oxo-2,3-dihydro-1H-benzo[d]imidazole-5-carboxylic acid] | – | + + +
O=C(O)c1ccc2[nH]c(=O)n(C3CN(Cc4ccc(Cl)cc4Cl)C3)c2c1 [Cmpd 11b, 3-(1-(2,4-dichlorobenzyl)azetidin-3-yl)-2-oxo-2,3-dihydro-1H-benzo[d]imidazole-5-carboxylic acid] | – | + +

Structure (SMILES) | IC50 [µM] | IP6K1 IC50
O=C(O)c1ccc2[nH]c(=O)n(C3CCN(C(=O)c4ccccc4Cl)CC3)c2c1 [Cmpd 1b, 3-(1-(2-chlorobenzoyl)piperidin-4-yl)-2-oxo-2,3-dihydro-1H-benzo[d]imidazole-5-carboxylic acid] | – | + +
O=C(O)c1ccc2[nH]c(=O)n([C@@H]3CCN(C(=O)c4ccc(Cl)cc4Cl)C3)c2c1 [Cmpd 14b, (R)-3-(1-(2,4-dichlorobenzoyl)pyrrolidin-3-yl)-2-oxo-2,3-dihydro-1H-benzo[d]imidazole-5-carboxylic acid] | – | + +
O=C(O)c1ccc2c(c1)C1(CCN(C(=O)Nc3ccc(Cl)cc3)CC1)C(=O)N2 [Cmpd 7a, 1′-((4-chlorophenyl)carbamoyl)-2-oxospiro[indoline-3,4′-piperidine]-5-carboxylic acid] | – | + + +
O=C(O)c1ccc2[nH]c(=O)n([C@H]3CCN(C(=O)c4ccc(Cl)cc4Cl)C3)c2c1 [Cmpd 12b, (S)-3-(1-(2,4-dichlorobenzoyl)pyrrolidin-3-yl)-2-oxo-2,3-dihydro-1H-benzo[d]imidazole-5-carboxylic acid] | – | + +
O=C(O)c1ccc2c(c1)C1(CCN(C(=O)c3ccc(C(F)(F)F)cc3)CC1)C(=O)N2 [Cmpd 8a, 2-oxo-1′-(4-(trifluoromethyl)benzoyl)spiro[indoline-3,4′-piperidine]-5-carboxylic acid] | – | + + +
O=C(O)c1ccc2c(c1)C1(CCN(C(=O)c3ccc(Cl)cc3Cl)CC1)C(=O)N2 [Cmpd 17a, 1′-(2,4-dichlorobenzoyl)-2-oxospiro[indoline-3,4′-piperidine]-5-carboxylic acid] | – | + + +
COC(=O)c1ccc2c(c1)C1(CCN(C(=O)c3ccc(Cl)cc3)CC1)C(=O)N2 [Cmpd 3a, Methyl 1′-(4-chlorobenzoyl)-2-oxospiro[indoline-3,4′-piperidine]-5-carboxylate] | 3 to 30 | –
O=C(O)c1ccc2c(c1)[nH]c(=O)n2C1CCN(C(=O)c2ccc(Cl)cc2Cl)CC1 [Cmpd 16b, 1-(1-(2,4-dichlorobenzoyl)piperidin-4-yl)-2-oxo-2,3-dihydro-1H-benzo[d]imidazole-5-carboxylic acid] | – | + +
O=C(O)c1ccc2[nH]c(=O)n([C@@H]3CCN(Cc4ccc(Cl)cc4Cl)C3)c2c1 [Cmpd 15b, (R)-3-(1-(2,4-dichlorobenzyl)pyrrolidin-3-yl)-2-oxo-2,3-dihydro-1H-benzo[d]imidazole-5-carboxylic acid] | – | + +
CC(C)C(=O)N1CCC2(CC1)C(=O)Nc1ccc(C(=O)O)cc12 [Cmpd 13a, 1′-isobutyryl-2-oxospiro[indoline-3,4′-piperidine]-5-carboxylic acid] | 3 to 30 | –
O=C(O)c1ccc2c(c1)C1(CCN(S(=O)(=O)c3ccc(Cl)cc3)CC1)C(=O)N2 [Cmpd 1a, 1′-((4-chlorophenyl)sulfonyl)-2-oxospiro[indoline-3,4′-piperidine]-5-carboxylic acid] | – | + +
O=C(O)c1ccc2c(c1)C1(CCN(C(=O)c3ncc(Cl)cc3Cl)CC1)C(=O)N2 [Cmpd 6a, 1′-(3,5-dichloropicolinoyl)-2-oxospiro[indoline-3,4′-piperidine]-5-carboxylic acid] | – | + + +
O=C(O)c1ccc2c(c1)C1(CCN(C(=O)c3ccccc3Cl)CC1)C(=O)N2 [Cmpd 14a, 1′-(2-chlorobenzoyl)-2-oxospiro[indoline-3,4′-piperidine]-5-carboxylic acid] | – | + +
O=C(O)c1ccc2[nH]c(=O)n(C3CCN(C(=O)c4ccc(Cl)cc4Cl)CC3)c2c1 [Cmpd 3b, 3-(1-(2,4-dichlorobenzoyl)piperidin-4-yl)-2-oxo-2,3-dihydro-1H-benzo[d]imidazole-5-carboxylic acid] | – | + + +
O=C(O)c1ccc2c(c1)C1(CCN(C(=O)c3ccc(Cl)cc3)CC1)C(=O)N2 [Cmpd 2a, 1′-(4-chlorobenzoyl)-2-oxospiro[indoline-3,4′-piperidine]-5-carboxylic acid] | – | + + +

Tested on: Mice treated with HFD
Assay: not given
Settings: HFD 8 weeks then daily intraperitoneal 20 mg/kg TNP and HFD for 18 days; cited from earlier work

Structure (SMILES) | glucose tolerance and insulin sensitivity | serum insulin levels
O=[N+]([O-])c1ccc(CNc2nc(NCc3cccc(C(F)(F)F)c3)nc3nc[nH]c23)cc1 [TNP, N2-(m-trifluorobenzyl)-N6-(p-nitrobenzyl)purine] | improved | lower
